This is an account of results in article PMC9280689, “Resistance to Powdery Mildew in Qingke Involves the Accumulation of Aromatic Phenolamides Through Jasmonate-Mediated Activation of Defense-Related Genes” (Frontiers in Plant Science, 2022).

In the assay the target is T1, HvTBT2 (Hordeum vulgare, UniProt A0A8I6X4Z6).
T1 construct: gene LOC123447140; full-length cDNA in pGEX-6p-1, GST fusion, E. coli BL21(DE3), purified
The experiment in a line: LC-MS product assay. In kind it is biochemical. The settings on record: acyl donor; amine acceptor 100 μM (which amine not told); 10 mM MgCl2, Tris-HCl pH 7.4, 30 °C. From the text:
LC-MS product assay on HvTBT2

T1 sequence (A0A8I6X4Z6 entry or part of it): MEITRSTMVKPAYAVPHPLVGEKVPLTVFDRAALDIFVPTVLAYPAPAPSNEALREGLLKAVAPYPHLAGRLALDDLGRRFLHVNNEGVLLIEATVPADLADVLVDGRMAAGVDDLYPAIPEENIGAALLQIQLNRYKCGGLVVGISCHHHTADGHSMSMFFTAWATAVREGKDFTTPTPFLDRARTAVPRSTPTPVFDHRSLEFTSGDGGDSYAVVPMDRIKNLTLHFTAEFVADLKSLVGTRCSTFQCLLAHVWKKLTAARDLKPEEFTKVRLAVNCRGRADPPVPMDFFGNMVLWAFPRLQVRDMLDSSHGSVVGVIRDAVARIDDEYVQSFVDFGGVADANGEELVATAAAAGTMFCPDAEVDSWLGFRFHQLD

Regarding `COc1cc(/C=C/C(=O)SCCNC(=O)CCNC(=O)[C@H](O)C(C)(C)COP(=O)(O)OP(=O)(O)OC[C@H]2O[C@@H](n3cnc4c(N)ncnc43)[C@H](O)[C@@H]2OP(=O)(O)O)ccc1O` [Feruloyl-CoA], the Km (commonly the substrate concentration at which the rate is half of its maximum) was 382 ± 98.3 µM.
